# Test results: US20040067932A1 (priority 2002, published 2004)
# “Also recorded” adds a separate entry of the source.
# Key:
# A375 cells [1] = assay: Flow cytometry (PI) G2/M accumulation and sub-G1 apoptosis, A375; type: cell-based, human
# Procedure: (§1) A375 and NCTC2544 adherent cells were trypsinized, mixed with floating cells, washed with PBS and permeabilised in 70% (vol/vol) ethanol/PBS solution at 4° C. for at least 24 hours. Jurkat, HeL023 and PBMC cells were centrifuged for 10 minutes at 1000×g. The cell pellet was then resuspended and permeabilised in 70% (vol/vol) ethanol/PBS solution at 4° C. for at least 24 hours. The cells were washed with PBS and the DNA was stained with a PBS solution, containing 20 μg/ml of propidium iodide and 100 μg/ml of RNAse, at room temperature for 30 minutes. Cells were analysed by FACScan (Becton-Dickinson) and the content of DNA was evaluated by the Cell-LISYS program (Becton-Dickinson). Cell distribution among cell cycle phases and apoptotic cells was evaluated as previously described (Secchiero et al., 2001). Briefly, the cell cycle distribution is shown as the percentage of cells containing 2n (G1 phase), 4n (G2 and M phases), 4n>x>2n. DNA amount (S phase) judged by propidium iodide staining. The apoptotic population is the percentage of cells with DNA content lower than 2n.
# Cell proliferation and apoptosis are quantified by flow cytometer analysis after propidium-iodide (PI) DNA staining.
# NCTC2544 cells = assay: Flow cytometry (PI) G2/M accumulation and sub-G1 apoptosis, NCTC2544; type: cell-based, human; conditions: NCTC 2544; MRE3008F20 10 μM
# Procedure: as §1
# (§2) To verify the role of A3 receptor antagonists on paclitaxel and vindesine mediated alteration of cell proliferation and apoptosis, testing was performed with additional cell lines. […] Experimental conditions are similar to those for the A375 cell testing.
# [2] = molecular target: T1, P-gp drug efflux activity in A375 cells (Homo sapiens, UniProt P08183); assay: Rhodamine 123 efflux assay, A375 cells; type: cell-based
# T1 construct: endogenous in cells; host or cells: A375 human melanoma cells (ATCC)
# T1 sequence (P08183 whole entry): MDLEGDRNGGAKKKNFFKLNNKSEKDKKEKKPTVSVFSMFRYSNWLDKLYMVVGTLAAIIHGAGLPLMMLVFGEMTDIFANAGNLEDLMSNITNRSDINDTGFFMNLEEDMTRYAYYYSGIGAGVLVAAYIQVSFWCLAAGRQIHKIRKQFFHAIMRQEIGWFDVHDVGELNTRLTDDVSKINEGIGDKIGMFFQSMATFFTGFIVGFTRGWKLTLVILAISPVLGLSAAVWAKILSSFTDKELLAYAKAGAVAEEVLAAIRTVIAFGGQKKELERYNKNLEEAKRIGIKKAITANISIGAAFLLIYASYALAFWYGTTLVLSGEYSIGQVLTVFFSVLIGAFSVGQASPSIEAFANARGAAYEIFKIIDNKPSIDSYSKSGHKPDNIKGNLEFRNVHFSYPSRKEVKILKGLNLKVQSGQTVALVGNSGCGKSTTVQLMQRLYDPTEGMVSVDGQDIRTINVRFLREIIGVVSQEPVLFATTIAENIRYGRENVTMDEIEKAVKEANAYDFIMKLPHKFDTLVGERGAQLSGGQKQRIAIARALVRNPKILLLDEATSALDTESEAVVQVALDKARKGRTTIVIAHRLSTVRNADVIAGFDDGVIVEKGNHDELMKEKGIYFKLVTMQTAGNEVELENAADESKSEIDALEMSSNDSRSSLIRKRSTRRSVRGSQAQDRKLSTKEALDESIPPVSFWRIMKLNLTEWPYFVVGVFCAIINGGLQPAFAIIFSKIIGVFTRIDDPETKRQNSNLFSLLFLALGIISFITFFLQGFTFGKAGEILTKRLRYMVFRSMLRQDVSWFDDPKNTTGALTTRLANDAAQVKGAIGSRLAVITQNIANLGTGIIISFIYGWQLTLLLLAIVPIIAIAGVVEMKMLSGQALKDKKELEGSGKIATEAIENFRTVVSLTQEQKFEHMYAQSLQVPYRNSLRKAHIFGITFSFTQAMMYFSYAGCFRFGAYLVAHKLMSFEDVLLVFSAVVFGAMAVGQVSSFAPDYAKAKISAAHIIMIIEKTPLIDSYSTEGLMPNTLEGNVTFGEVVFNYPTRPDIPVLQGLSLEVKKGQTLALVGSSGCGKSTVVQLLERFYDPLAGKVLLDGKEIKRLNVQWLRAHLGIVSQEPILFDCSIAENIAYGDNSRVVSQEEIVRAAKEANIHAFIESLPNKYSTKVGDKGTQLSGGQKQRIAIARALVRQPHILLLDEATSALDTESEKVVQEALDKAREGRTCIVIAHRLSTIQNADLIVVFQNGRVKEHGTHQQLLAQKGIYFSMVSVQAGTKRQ
# Procedure: (§3) 5×10^5 cells from each subline were loaded with 50 ng/ml of rhodamine 123 for 30 minutes at 37° C. in medium. The cells were washed and resuspended in dye-staining agent free medium for 3 hours at 37° C. to allow rhodamine 123 efflux. The cells were then washed twice and the fluorescence of intracellular rhodamine 123 were analysed with Flow cytometer (residual fluorescence FRES). The fluorescence was compared with loaded cells maintained at 4° C. to prevent drug export (maximal fluorescence FMAX). […] Cells from each subline that were not being exposed to rhodamine 123 were used as negative controls.
# (§4) Rhodamine 123 (Rh123) retention, a P-gp functional assay, was studied in all cell lines. This assay was performed by incubating cells with Rh123 and determining Rh123 accumulation by measuring its fluorescence. The maximum load of Rh123 (FMAX) was quantified at the end of treatment harvesting the cells and storing them at 4° C. to prevent any active Rh123 efflux . The P-gp drug efflux was allowed incubating Rh123-loaded cells in fresh new medium Rh123-free for 3 hours at 37° C. After this incubation, residual fluorescence (FRES) was measured and compared to FMAX.
# [3] = test system: human lung carcinoma SKMES; assay: MTT growth inhibitory assay, SKMES; type: cell-based
# Procedure: (§5) One of the growth inhibitory assays is the MTT assay. Cells (1000-1500 cells/well) are seeded in a 96-well micro culture plate in a total volume of 100 μl/well. After overnight incubation in a humidified incubator at 37° C. with 5% CO2-95% air, chemotherapeutic drug solutions diluted with culture medium at various concentrations are added in the amount of 100 μl to each well. The plates are placed in a humidified incubator at 37° C. with 5% CO2-95% air for 7-10 days. The plates are then centrifuged briefly and 100 μl of the growth medium is removed. Cell cultures are incubated with 50 μl of MTT [3-(4,5-dimethylthiazol-2-yl)-2,5-diphenyl-tetrazolium bromide] reagent (1 mg/ml in Dulbecco's phosphate-buffered saline) for 4 hr at 37° C. The resultant purple formazan precipitate is solubilized with 200 μl of 0.04 N HCl in isopropanol. Absorbance is measured at a wavelength of 595 nm and at a reference wavelength of 655 nm using a Bio-Rad Model 3550 Microplate Reader. Preferably, all tests are run in duplicate for each dose level.
# (§6) The EZED50 computer program estimates the concentration of agent that inhibits cell growth by 50% as compared to the control cells. This is termed the IC50 and is determined by curve fitting test data using the following four logistic equation. [formula]
# (§7) Inhibitory assay testing is also used to determine enhanced therapeutic effects from combining A3 receptor antagonists with other tumor inhibiting agents. The inhibitory cell growth assays are run with and without selected concentrations of A3 receptor antagonists. An enhanced therapeutic effect is present when the IC50 of the tumor inhibiting agent is lower with the A3 receptor antagonist.
# (§8) Quantitatively, the enhancement factor (EF) is calculated by dividing the IC50 value of the tumor inhibiting agent for a tumor cell line by the IC50 value of the agent with A3 receptor antagonist for the same cell line: [formula]
# A375 melanoma cells = assay: Colony formation assay of A375 cells; type: cell-based, human
# Procedure: FIG. 2 illustrates colony formation assay of A375 cells. Cells were treated with different drugs and colonies were counted after 7 days. The values represent the mean ±SEM of four independent experiments. D=DMSO (control); T=paclitaxel, 0.75 ng/ml; M=MRE 3008F20, 10 μM; C=CI-IB-MECA, 10 μM; TM=paclitaxel plus MRE 3008F20; TC=paclitaxel plus CI-IB-MECA treated cells. *P<0.01 TM versus T. Analysis was by ANOVA followed by Dunnett's test.;
# Control plates received the same volume of DMSO alone. After 7 days of growth at 37° C. in humidified atmosphere containing 5% CO2, the cells were fixed with absolute methanol for 5′ and stained with 1/10 Giemsa/phosphate-buffered saline (PBS) staining solution for 10 minutes. Staining solution was removed and colonies of greater than 30 cells were scored as survivors. For each treatment, six individual wells were scored.
# Colony formation assay experiments were performed on A375 melanoma cells treated with increasing concentration of paclitaxel (0.25-75 ng/ml). A3 stimulation is achieved with the selective agonist CI-IB-MECA while A3 blockade is obtained with the selective antagonist MRE 3008F20. […] (FIG. 2)
# rA1 adenosine receptor = molecular target: T2, rA1 adenosine receptor (Rattus norvegicus, UniProt P25099); assay: Binding affinity at rA1 adenosine receptor
# T2 sequence (P25099 1-326): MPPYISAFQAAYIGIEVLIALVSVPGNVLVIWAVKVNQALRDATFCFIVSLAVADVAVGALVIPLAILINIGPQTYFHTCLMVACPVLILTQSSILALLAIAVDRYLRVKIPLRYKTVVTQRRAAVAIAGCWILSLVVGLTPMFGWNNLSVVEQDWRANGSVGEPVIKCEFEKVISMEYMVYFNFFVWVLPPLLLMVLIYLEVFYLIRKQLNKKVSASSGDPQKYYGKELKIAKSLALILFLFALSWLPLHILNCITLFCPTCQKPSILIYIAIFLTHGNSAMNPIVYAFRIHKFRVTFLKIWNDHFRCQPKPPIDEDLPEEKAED
# Jurkat cells = assay: Flow cytometry (PI) G2/M accumulation and sub-G1 apoptosis, Jurkat; type: cell-based, human; conditions: MRE3008F20 10 μM
# Procedure: as §1, §2
# [4] = molecular target: T3, P-gp drug efflux activity in HeL023 cells (Homo sapiens, UniProt P08183); assay: Rhodamine 123 efflux assay, HeL023 cells; type: cell-based; conditions: Rh123 efflux, concentrations of Table 11 (MRE3008F20 10 μM)
# T3 construct: nearly all (100±1%) the cells expressing high level of functional P-gp; endogenous in cells; host or cells: HeL023 human erythroleukemia cells
# T3 sequence (P08183 whole entry): as the sequence (P08183 whole entry) above
# Procedure: as §3, §4
# [5] = test system: human melanoma A375 cell line; assay: MTT growth inhibitory assay, A375; type: cell-based
# [6] = test system: human colon carcinoma HT29 cell line; assay: MTT growth inhibitory assay, HT29; type: cell-based
# Procedure: as §5, §6, §7, §8
# HeL023 cells = assay: Flow cytometry (PI) G2/M accumulation and sub-G1 apoptosis, HeL023; type: cell-based, human; conditions: MRE3008F20 10 μM
# Procedure: as §1, §2
# [7] = test system: human pancreatic cancer Panc-1; assay: MTT growth inhibitory assay, Panc-1; type: cell-based
# Procedure: as §5, §6, §7, §8
# A375 cells [8] = assay: Metabolic (MEK/ERK/p38MAPK) inhibitor signalling study by flow cytometry, A375; type: cell-based, human; conditions: U0126 30 μM; for prevention of MRE3008F20-induced accumulation in G2/M: MRE3008F20 10 μM
structure (smiles),measurement,setting,value
CCCn1cc2c(nc(NC(=O)Nc3ccc(OC)cc3)n3nc(-c4ccco4)nc23)n1 [MRE3008F20],paclitaxel ECMAX with A3 antagonist,"A375 cells [1]; A375, MRE3008F20 10 μM",3.04 ± 0.32 ng/mL
same,vindesine ECMAX with A3 antagonist,"A375 cells [1]; A375, MRE3008F20 10 μM",1.66 ± 0.20 nM
same,EC50,"A375 cells [1]; Homo sapiens, A-375, read-out: SEC50 (dose inducing 50% of the enhancing activity to vindesine)",550 ± 60 nM
same,paclitaxel ECMAX with A3 antagonist,NCTC2544 cells,2.55 ± 0.24 ng/mL
same,vindesine ECMAX with A3 antagonist,NCTC2544 cells,1.34 ± 0.15 nM
same,blockade of P-gp mediated Rh123 transport (in words),"[2]; 10 μM, FRES comparable to FMAX",completely blockade of P-gp mediated Rh123 transport
same,IC50,"[3]; Human Lung Carcinoma SKMES, read-out: IC50 growth inhibition, agent used separately",19 ± 1.2 µg/mL
same,Enhancement Factor for docetaxel,"[3]; SKMES, A3 antagonist 1 μg/ml",3.6
same,Enhancement Factor for irinotecan HCL,"[3]; SKMES, A3 antagonist 1 μg/ml",2.1
same,Enhancement Factor for paclitaxel,"[3]; SKMES, A3 antagonist 1 μg/ml",4.1
same,Enhancement Factor for vinblastine,"[3]; SKMES, A3 antagonist 1 μg/ml",1.2
same,"colony formation, % of DMSO control","A375 melanoma cells; 10 μM alone, 7 days",59%
same,colony formation predicted by geometrical combination,A375 melanoma cells; MRE 3008F20 10 μM plus paclitaxel 0.75 ng/ml,38%
same,Ki,rA1 adenosine receptor,> 10000 nM
same,paclitaxel ECMAX with A3 antagonist,Jurkat cells,2.29 ± 0.31 ng/mL
same,inhibition of P-gp activity (in words),[4],near total P-gp inhibition; also recorded: strong inhibitors of P-gp activity
same,Enhancement Factor for docetaxel,"[5]; A375, A3 antagonist 1 μg/ml",63.3
same,Enhancement Factor for paclitaxel,"[5]; A375, A3 antagonist 1 μg/ml",7.1
same,Enhancement Factor for docetaxel,"[5]; A375, A3 antagonist 3 μg/ml",6.9
same,Enhancement Factor for paclitaxel,"[5]; A375, A3 antagonist 3 μg/ml",6.4
same,Enhancement Factor for docetaxel,"[5]; A375, A3 antagonist 10 μg/ml",5.3
same,Enhancement Factor for paclitaxel,"[5]; A375, A3 antagonist 10 μg/ml, paclitaxel 0.0001-0.05 μg/ml",7.1
same,enhancement factor for paclitaxel at all three concentrations,"[5]; A375, A3 antagonist 1, 3 and 10 μg/ml",6.4-7.1
same,IC50,"[5]; Homo sapiens, A-375, Human Melanoma A375, read-out: IC50 growth inhibition, agent used separately",91.3 ± 1.5 µg/mL
same,inhibition at 10 µg/mL,"[5]; Homo sapiens, A-375, A375, 10 μg/ml, read-out: growth inhibition in the presence of A3 antagonist alone",30 to 45%
same,Enhancement Factor for docetaxel,"[6]; HT29, A3 antagonist 1 μg/ml",15.0
same,Enhancement Factor for doxorubicin,"[6]; HT29, A3 antagonist 1 μg/ml",1.6
same,Enhancement Factor for irinotecan HCl,"[6]; HT29, A3 antagonist 1 μg/ml",1.8
same,Enhancement Factor for paclitaxel,"[6]; HT29, A3 antagonist 1 μg/ml",2.9
same,IC50,"[6]; HT-29, Human Colon Carcinoma HT29, read-out: IC50 growth inhibition, agent used separately",39.4 ± 7.7 µg/mL
same,paclitaxel ECMAX with A3 antagonist,HeL023 cells,3.19 ± 0.30 ng/mL
same,vindesine ECMAX with A3 antagonist,HeL023 cells,1.05 ± 0.09 nM
same,IC50,"[7]; Human Pancreatic Cancer Panc-1, read-out: IC50 growth inhibition, agent used separately",15.8 ± 13.5 µg/mL
same,Enhancement Factor for docetaxel,"[7]; Panc-1, A3 antagonist 1 μg/ml",1.8
same,Enhancement Factor for paclitaxel,"[7]; Panc-1, A3 antagonist 1 μg/ml",1.9
N#CC(=C(/N)Sc1ccccc1N)/C(C#N)=C(\N)Sc1ccccc1N [U0126],effect on MRE 3008F20 blockade of P-gp (in words),"[2]; U0126 30 μM for 30 minutes, then MRE3008F20 10 μM",failed to prevent MRE 3008F20 blockade of P-gp
same,effect on G2/M accumulation rate of paclitaxel or vindesine alone (in words),"A375 cells [8]; PD98059 20 μM, SB203580 1 μM",did not alter
same,prevention of MRE3008F20-induced accumulation in G2/M,A375 cells [8]; in presence of paclitaxel,23±5%
same,prevention of MRE3008F20-induced accumulation in G2/M,A375 cells [8]; in presence of vindesine 1 nM,48±5%
same,reduction of apoptosis induced by paclitaxel,"A375 cells [8]; paclitaxel 25 ng/ml, PD98059 20 μM, SB203580 1 μM",73±10%
